Results on 38 compounds are retold here after patent publication US9777008B2, “PRMT5 inhibitors and uses thereof” (Epizyme, Inc., priority 2012, dated 2017).

Bounds are passed on as bounds.

The target of the experiment is PRMT5/MEP50 (Homo sapiens (Human), UniProt O14744). The experiment can be described thus: PRMT5 Biochemical Assay (PRMT5/MEP50 enzyme assay on peptide substrate, 3H-SAM Flashplate). From the text: S-adenosylmethionine (SAM), S-adenosylhomocysteine (SAH), bicine, KCl, Tween20, dimethylsulfoxide (DMSO), bovine skin gelatin (BSG), and Tris(2-carboxyethyl)phosphine hydrochloride solution (TCEP) were purchased from Sigma-Aldrich at the highest level of purity possible. ^3H-SAM was purchase from American Radiolabeled Chemicals with a specific activity of 80 Ci/mmol. 384-well streptavidin Flashplates were purchased from PerkinElmer.
Sequence of PRMT5/MEP50 (O14744 other isoform, or with tags, fused parts or gaps): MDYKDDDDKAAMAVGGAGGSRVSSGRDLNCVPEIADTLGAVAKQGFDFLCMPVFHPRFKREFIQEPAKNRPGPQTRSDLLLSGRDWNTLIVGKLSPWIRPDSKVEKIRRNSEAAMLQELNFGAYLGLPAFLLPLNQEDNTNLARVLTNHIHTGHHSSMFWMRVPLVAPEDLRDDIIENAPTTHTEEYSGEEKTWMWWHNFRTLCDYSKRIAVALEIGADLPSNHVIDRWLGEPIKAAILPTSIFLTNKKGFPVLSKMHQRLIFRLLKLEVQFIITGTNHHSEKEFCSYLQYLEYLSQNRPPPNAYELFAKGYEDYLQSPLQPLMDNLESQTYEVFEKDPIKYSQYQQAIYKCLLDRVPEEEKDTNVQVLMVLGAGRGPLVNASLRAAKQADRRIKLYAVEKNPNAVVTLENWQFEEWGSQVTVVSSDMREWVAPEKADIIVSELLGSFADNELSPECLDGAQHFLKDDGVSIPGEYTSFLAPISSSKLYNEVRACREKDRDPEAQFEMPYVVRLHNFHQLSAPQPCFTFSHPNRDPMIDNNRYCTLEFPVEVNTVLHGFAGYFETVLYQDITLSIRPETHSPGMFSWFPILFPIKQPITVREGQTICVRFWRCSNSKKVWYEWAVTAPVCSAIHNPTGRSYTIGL
Sequence of PRMT5/MEP50 (Q9BQA1 other isoform, or with tags, fused parts or gaps partner): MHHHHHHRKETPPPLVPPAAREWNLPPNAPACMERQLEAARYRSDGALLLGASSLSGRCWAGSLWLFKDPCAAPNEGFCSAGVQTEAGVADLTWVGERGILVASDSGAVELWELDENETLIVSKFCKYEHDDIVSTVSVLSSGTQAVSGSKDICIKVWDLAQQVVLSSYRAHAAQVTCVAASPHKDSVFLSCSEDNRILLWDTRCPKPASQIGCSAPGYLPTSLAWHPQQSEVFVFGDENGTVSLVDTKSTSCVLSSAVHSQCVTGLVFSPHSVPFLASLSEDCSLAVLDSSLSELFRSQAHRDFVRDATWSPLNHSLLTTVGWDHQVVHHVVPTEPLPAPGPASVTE
Peptide representative of human histone H4 residues 1-15 was synthesized with a C-terminal linker-affinity tag motif and a C-terminal amide cap by 21st Century Biochemicals. The peptide was high high-performance liquid chromatography (HPLC) purified to greater than 95% purity and confirmed by liquid chromatography mass spectrometry (LC-MS). The sequence was Ac-[…][K-Biot]-amide (SEQ ID NO.:3).
Molecular Biology: Full-length human PRMT5 (NM_006109.3) transcript variant 1 clone was amplified from a fetal brain cDNA library, incorporating flanking 5′ sequence encoding a FLAG tag ([…]) (SEQ ID NO.:4) fused directly to Ala 2 of PRMT5. Full-length human MEP50 (NM_024102) clone was amplified from a human testis cDNA library incorporating a 5′ sequence encoding a 6-histidine tag (MHHHHHH) (SEQ ID NO.:5) fused directly to Arg 2 of MEP50. The amplified genes were sublconed into pENTR/D/TEV (Life Technologies) and subsequently transferred by Gateway™ attL×attR recombination to pDEST8 baculvirus expression vector (Life Technologies).
Recombinant baculovirus and Baculovirus-Infected Insect Cells (BIIC) were generated according to Bac-to-Bac kit instructions (Life Technologies) and Wasilko, 2006, respectively. Protein over-expression was accomplished by infecting exponentially growing Spodoptera frugiperda (SF9) cell culture at 1.2×10^6 cell/ml with a 5000 fold dilution of BIIC stock. Infections were carried out at 27° C. for 72 hours, harvested by centrifugation, and stored at −80° C. for purification.
Flag-PRMT5/6His-MeP50 was eluted with 300 mM Imidazole in the same buffer. The purity of recovered protein was 87%. Reference: Wasilko, D. J. and S. E. Lee: “TIPS: titerless infected-cells preservation and scale-up” Bioprocess J., 5 (2006), pp. 29-32.
General Procedure for PRMT5/MEP50 Enzyme Assays on Peptide Substrates.
The assays were all performed in a buffer consisting of 20 mM Bicine (pH=7.6), 1 mM TCEP, 0.005% BSG, and 0.002% Tween20, prepared on the day of use. Compounds in 100% DMSO (1 ul) were spotted into a polypropylene 384-well V-bottom plates (Greiner) using a Platemate Plus outfitted with a 384-channel head (Thermo Scientific). DMSO (1 ul) was added to Columns 11, 12, 23, 24, rows A-H for the maximum signal control and 1 ul of SAH, a known product and inhibitor of PRMT5/MEP50, was added to columns 11, 12, 23, 24, rows I-P for the minimum signal control. A cocktail (40 ul) containing the PRMT5/MEP50 enzyme and the peptide was added by Multidrop Combi (Thermo-Fisher). The compounds were allowed to incubate with PRMT5/MEP50 for 30 min at 25 degrees Celsius, then a cocktail (10 ul) containing ^3H-SAM was added to initiate the reaction (final volume=51 ul). The final concentrations of the components were as follows: PRMT5/MEP50 was 4 nM, ^3H-SAM was 75 nM, peptide was 40 nM, SAH in the minimum signal control wells was 100 uM, and the DMSO concentration was 1%. The assays were stopped by the addition of non-radioactive SAM (10 ul) to a final concentration of 600 uM, which dilutes the ^3H-SAM to a level where its incorporation into the peptide substrate is no longer detectable. 50 ul of the reaction in the 384-well polypropylene plate was then transferred to a 384-well Flashplate and the biotinylated peptides were allowed to bind to the streptavidin surface for at least 1 hour before being washed three times with 0.1% Tween20 in a Biotek ELx405 plate washer. […]

With `OC(CNc1cc(-c2ncc3ccn(C4CNC4)c3n2)ccn1)CN1CCc2ccccc2C1` (centres unmarked) [Compound 254], the IC50 (in general, the point on the concentration scale where inhibition reaches its midpoint) is below 100 nM.

For `Cn1cnc2ccc(-c3ccnc(NC[C@H](O)CN4CCc5ccccc5C4)c3)cc21` [Compound 275], the IC50 was below 100 nM.

Turning to `Cn1ccc2ccc(-c3cccc(OCC(O)CN4CCc5ccccc5C4)c3)nc21` (centres unmarked) [Compound 176, 1-(3,4-dihydroisoquinolin-2(1H)-yl)-3-(3-(1-methyl-1H-pyrrolo[2,3-b]pyridin-6-yl)phenoxy)propan-2-ol], the IC50 is below 100 nM.

With `Cn1ccc2ccc(-c3ccnc(NCC(O)CN4CCc5ccccc5C4)c3)cc21` (centres unmarked) [Compound 227], the IC50 was below 100 nM.

For `O[C@@H](COc1cccc(-c2cccc3cccnc23)c1)CN1CCc2ccccc2C1` [Compound 257, (R)-1-(3,4-dihydroisoquinolin-2(1H)-yl)-3-(3-(quinolin-8-yl)phenoxy)propan-2-ol], the IC50 was below 100 nM.

As for `CNC(=O)Cn1ccc2cnc(-c3ccnc(NCC(O)CN4CCc5ccccc5C4)c3)nc21` (centres unmarked) [Compound 245], the IC50 is below 100 nM.

As to `CC1Cc2ccccc2CN1CC(O)COc1cccc(CNC2CCCC2)c1` (centres unmarked) [Compound 51], the IC50 is above 40000 nM.

Consider `Cn1cnc2ccc(-c3cccc(OCC(O)CN4CCc5ccccc5C4Cc4ccccc4)c3)cc21` (centres unmarked) [Compound 143], for which the IC50 is above 40000 nM.

As to `Cn1ccc2cnc(-c3cccc(OCC(O)CN4CCc5ccccc5C4)c3)nc21` (centres unmarked) [Compound 141, 1-(3,4-dihydroisoquinolin-2(1H)-yl)-3-(3-(7-methyl-7H-pyrrolo[2,3-d]pyrimidin-2-yl)phenoxy)propan-2-ol], the half-maximal inhibitory concentration (IC50) is below 100 nM.

With `CN1CCC(OCC(O)CN2CCc3ccccc3C2)CC1` (centres unmarked) [Compound 293], the IC50 was above 40000 nM.

`Cn1cnc2ccc(-c3cccc(OCC(O)CN4CCc5ccccc5C4=O)c3)cc21` (centres unmarked) [Compound 225]: the IC50 is above 40000 nM.

Take `COc1cc2c(cc1OC)CN(CC(O)COc1cccc(CNC3CCCC3)c1)CC2` (centres unmarked) [Compound 30]: the IC50 was above 40000 nM.

Consider `COc1cc2c(cc1OC)CN(CC(O)COc1cccc(-c3ccc4ncn(C)c4c3)c1)CC2` (centres unmarked) [Compound 146], for which the concentration for half-maximal inhibition (IC50) was above 40000 nM.

On to `OC(COc1cccc(-c2cccc3cccnc23)c1)CN1CCc2ccccc2C1` (centres unmarked) [Compound 65, 1-(3,4-dihydroisoquinolin-2(1H)-yl)-3-(3-(quinolin-8-yl)phenoxy)propan-2-ol], for which the IC50 is below 100 nM.

Take `Cn1cnc2ccc(-c3cccc(OCC(O)CN4CCc5ccccc5C4)c3)nc21` (centres unmarked) [Compound 189, 1-(3,4-dihydroisoquinolin-2(1H)-yl)-3-(3-(3-methyl-3H-imidazo[4,5-b]pyridin-5-yl)phenoxy)propan-2-ol]: the IC50 is below 100 nM.

`Cn1ccc2cnc(-c3ccnc(NCC(O)CN4CCc5ccccc5C4)c3)nc21` (centres unmarked) [Compound 239, 1-(3,4-dihydroisoquinolin-2(1H)-yl)-3-((4-(7-methyl-7H-pyrrolo[2,3-d]pyrimidin-2-yl)pyridin-2-yl)amino)propan-2-ol]: the 50% inhibitory concentration (IC50) was below 100 nM.

As to `Cn1cnc2ccc(-c3cncc(NCC(O)CN4CCc5ccccc5C4)c3)cc21` (centres unmarked) [Compound 199], the IC50 is below 100 nM.

`Cn1cc2ccc(-c3cccc(OCC(O)CN4CCc5ccccc5C4)c3)nc2n1` (centres unmarked) [Compound 210, 1-(3,4-dihydroisoquinolin-2(1H)-yl)-3-(3-(2-methyl-2H-pyrazolo[3,4-b]pyridin-6-yl)phenoxy)propan-2-ol]: the IC50 was below 100 nM.

Consider `Cn1cnc2ccc(-c3cccc(OCC(O)CN4CCc5ccccc5C4)c3)cc21` (centres unmarked) [Compound 45, 1-(3,4-dihydroisoquinolin-2(1H)-yl)-3-(3-(1-methyl-1H-benzo[d]imidazol-6-yl)phenoxy)propan-2-ol], for which the IC50 was below 100 nM.

As for `CCn1ccnc1COCC(O)CN1CCc2ccccc2C1` (centres unmarked) [Compound 295], the half-inhibitory concentration (IC50) is above 40000 nM.

`CN(C)S(=O)(=O)c1cccc(-c2cccc(OCC(O)CN3CCc4ccccc4C3)c2)c1` (centres unmarked) [Compound 61]: the IC50 is above 40000 nM.

`O=C(Cn1ccc2cnc(-c3ccnc(NCC(O)CN4CCc5ccccc5C4)c3)nc21)N1CCCCC1` (centres unmarked) [Compound 246]: the 50% inhibitory concentration (IC50) was below 100 nM.

Turning to `OC(COc1cccc(-c2ncc3ccn(C4CCNCC4)c3n2)c1)CN1CCc2ccccc2C1` (centres unmarked) [Compound 253], the IC50 was below 100 nM.

As for `CCOC(=O)C1c2ccccc2CCN1CC(O)COc1cccc(-c2ccc3ncn(C)c3c2)c1` (centres unmarked) [Compound 193], the IC50 was above 40000 nM.

As to `OC(COC1CCNC1)CN1CCc2ccccc2C1` (centres unmarked) [Compound 306], the IC50 was above 40000 nM.

Consider `COc1ccc(Cn2ccc(-c3ccc(OC[C@@H](O)CN4CCc5ccccc5C4)cc3)n2)cc1` [Compound 42], for which the IC50 lay in the range of 10000 to 40000 nM.

Take `O[C@H](COc1cccc(CNC2CCCC2)c1)CN1CCc2ccccc2C1` [Compound 22]: the IC50 fell in the range of 101 to 1000 nM.

Consider `OC(COc1cccc(-c2ccc3ncn(Cc4ccccc4)c3c2)c1)CN1CCc2ccccc2C1` (centres unmarked) [Compound 105, 1-(3-(1-benzyl-1H-benzo[d]imidazol-6-yl)phenoxy)-3-(3,4-dihydroisoquinolin-2(1H)-yl)propan-2-ol], for which the IC50 is below 100 nM.

In the case of `Cn1cc2ccc(-c3ccnc(NCC(O)CN4CCc5ccccc5C4)c3)cc2n1` (centres unmarked) [Compound 236], the half-inhibitory concentration (IC50) was below 100 nM.

In the case of `Cn1cnc2ccc(-c3ccnc(NC[C@@H](O)CN4CCc5ccccc5C4)c3)cc21` [Compound 276], the IC50 was 101 to 1000 nM.

As for `Cc1ncc2ccc(-c3cccc(OCC(O)CN4CCc5ccccc5C4)c3)cn12` (centres unmarked) [Compound 266, 1-(3,4-dihydroisoquinolin-2(1H)-yl)-3-(3-(3-methylimidazo[1,5-a]pyridin-6-yl)phenoxy)propan-2-ol], the IC50 was below 100 nM.

As to `COc1cccc2c1CCN(CC(O)COc1cccc(CNC3CCCC3)c1)C2` (centres unmarked) [Compound 54], the 50% inhibitory concentration (IC50) was above 40000 nM.

For `CN1CCN(C(=O)Cn2ccc3cnc(-c4ccnc(NCC(O)CN5CCc6ccccc6C5)c4)nc32)CC1` (centres unmarked) [Compound 247], the IC50 is below 100 nM.

`CN1CCCCC1COCC(O)CN1CCc2ccccc2C1` (centres unmarked) [Compound 289]: the IC50 is above 40000 nM.

On to `OC(CNc1cc(-c2ccc3ncn(C4CCOCC4)c3c2)ccn1)CN1CCc2ccccc2C1` (centres unmarked) [Compound 251, 1-(3,4-dihydroisoquinolin-2(1H)-yl)-3-((4-(1-(tetrahydro-2H-pyran-4-yl)-1H-benzo[d]imidazol-6-yl)pyridin-2-yl)amino)propan-2-ol], for which the concentration for half-maximal inhibition (IC50) is below 100 nM.

In the case of `OC(COc1cccc(-c2cccc3[nH]cnc23)c1)CN1CCc2ccccc2C1` (centres unmarked) [Compound 223, 1-(3-(1H-benzo[d]imidazol-4-yl)phenoxy)-3-(3,4-dihydroisoquinolin-2(1H)-yl)propan-2-ol], the IC50 is below 100 nM.

On to `Cn1ncc2cc(-c3cccc(OCC(O)CN4CCc5ccccc5C4)c3)ccc21` (centres unmarked) [Compound 108], for which the half-maximal inhibitory concentration (IC50) is below 100 nM.

For the compound `OC(COC1CCNCC1)CN1CCc2ccccc2C1` (centres unmarked) [Compound 298], the half-maximal inhibitory concentration (IC50) was above 40000 nM.
